Assay results published in US20260184710A1, “CASITAS B-LINEAGE LYMPHOMA PROTOONCOGENE B (CBL-B) DEGRADING COMPOUNDS AND ASSOCIATED METHODS OF USE” (Arvinas Operations, Inc., priority 2022, published 2026).

Assays:
Cbl-b [1] = target: T1, Cbl-b (Homo sapiens, UniProt Q13191); assay: Cbl-b Degradation Method B (Nano-Glo HiBiT lytic detection); type: cell-based; conditions: Cbl-b-HiBit KI Jurkat Cells, incubated at least 6-24 hours; for DC50: half maximal degradation, read-out: Cbl-b Degredation Method B IC50; for Cbl-b Degredation Method B Dmax (%) / Dmax: maximum degradation observed; for Dmax: read-out: Cbl-b Degredation Method B Dmax (%)
T1 construct: Cbl-b-HiBit KI Jurkat Cells were purchased from Promega; host or cells: Cbl-b-HiBiT knock-in Jurkat cells
Summary of the method: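 Cbl-b-HiBiT knock-in Jurkat cells (20,000/well) were treated after ~24 h plating with an 11-point 1:3 series for 6-24 h at 37° C. Remaining Cbl-b measured by Nano-Glo HiBiT lytic luminescence. DC50 and Dmax expressed as % of control.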

Cbl-b [2] = target: T1, Cbl-b; assay: Cbl-b Degradation Method A (FACS, anti-Cbl-b antibody staining); type: cell-based; conditions: Cbl-b-HiBit KI Jurkat Cells, incubated at least 20 hours; for DC50: half maximal degradation, read-out: Cbl-b Degredation Method A IC50; for Dmax: Jurkat, read-out: Cbl-b Degredation Method A Dmax (%)
Summary of the method: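 Cbl-b-HiBit KI Jurkat cells treated with compound for at least 20 h at 37 °C, then fixed, permeabilized and stained with anti-Cbl-b antibody plus anti-rabbit AF488 secondary. Cbl-b levels read by FACS; DC50 and Dmax (percent of control) derived.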

T1 sequence (Q13191 whole entry): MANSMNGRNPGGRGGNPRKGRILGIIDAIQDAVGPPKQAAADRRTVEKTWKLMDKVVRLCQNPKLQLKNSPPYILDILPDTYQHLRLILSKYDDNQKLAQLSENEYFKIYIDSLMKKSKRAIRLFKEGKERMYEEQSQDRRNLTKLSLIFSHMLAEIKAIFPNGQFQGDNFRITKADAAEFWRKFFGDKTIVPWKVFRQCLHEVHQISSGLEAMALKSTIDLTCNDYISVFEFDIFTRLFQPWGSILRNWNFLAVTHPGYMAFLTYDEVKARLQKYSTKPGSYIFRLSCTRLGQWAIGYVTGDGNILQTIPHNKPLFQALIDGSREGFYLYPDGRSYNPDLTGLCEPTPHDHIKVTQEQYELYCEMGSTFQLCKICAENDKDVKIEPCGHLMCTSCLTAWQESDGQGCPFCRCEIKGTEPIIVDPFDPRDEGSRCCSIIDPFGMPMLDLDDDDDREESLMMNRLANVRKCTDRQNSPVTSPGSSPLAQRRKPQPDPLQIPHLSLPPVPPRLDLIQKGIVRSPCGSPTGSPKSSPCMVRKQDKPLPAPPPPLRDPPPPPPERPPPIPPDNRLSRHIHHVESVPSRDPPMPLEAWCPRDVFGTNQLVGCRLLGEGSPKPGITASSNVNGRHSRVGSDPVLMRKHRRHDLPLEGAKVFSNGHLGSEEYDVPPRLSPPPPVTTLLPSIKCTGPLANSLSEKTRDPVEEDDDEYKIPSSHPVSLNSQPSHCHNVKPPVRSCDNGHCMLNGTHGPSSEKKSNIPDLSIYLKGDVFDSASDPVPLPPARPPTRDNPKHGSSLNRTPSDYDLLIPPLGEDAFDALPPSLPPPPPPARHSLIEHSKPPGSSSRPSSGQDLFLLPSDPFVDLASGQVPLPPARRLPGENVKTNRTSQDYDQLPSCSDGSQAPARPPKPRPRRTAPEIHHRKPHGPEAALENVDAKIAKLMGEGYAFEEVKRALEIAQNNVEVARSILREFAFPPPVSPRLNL

Compound	DC50 (Cbl-b [1]) [nM]	Cbl-b Degredation Method B Dmax (%) (Cbl-b [1])	DC50 (Cbl-b [2]) [nM]	Dmax (Cbl-b [2]; maximum degradation observed) [%]	Dmax (Cbl-b [1]) [%]	Cbl-b Degredation Method A Dmax (%) (Cbl-b [2]; maximum degradation observed)
CC(C)n1c(=O)n(C2CCC(=O)NC2=O)c2cccc(N3CCC(CN4CCC5(CC4)CN(c4cc6c(c(C(F)(F)F)c4)CN(c4cccc([C@]7(Cc8nncn8C)C[C@@H](C#N)C7)c4)C6=O)C5)CC3)c21 (some centres unmarked) [Example 284, (1r,3r)-3-(3-{6-[7-({1-[1-(2,6-dioxopiperidin-3-yl)-2-oxo-3-(propan-2-yl)-2,3-dihydro-1H-1,3-benzodiazol-4-yl]piperidin-4-yl}methyl)-2,7-diazaspiro[3.5]nonan-2-yl]-1-oxo-4-(trifluoromethyl)-2,3-dihydro-1H-isoindol-2-yl}phenyl)-3-[(4-methyl-4H-1,2,4-triazol-3-yl)methyl]cyclobutane-1-carbonitrile]	< 5	C (C ≤ 35)	50 to 500	35 to 70	–	–
CC1c2nc(N3CCC(O[C@H]4CC[C@H](CN5CCN(Cc6cc7c(c(C(F)(F)F)c6)CN(c6cccc(C8(Cc9nncn9C)CCC8)c6)C7=O)CC5)CC4)CC3)ccc2C(=O)N1C1CCC(=O)NC1=O (mixture of isomers) [Example 232, rac-3-[7-methyl-5-oxo-2-(4-{[(1r,4r)-4-[(4-{[2-(3-{1-[(4-methyl-4H-1,2,4-triazol-3-yl)methyl]cyclobutyl}phenyl)-3-oxo-7-(trifluoromethyl)-2,3-dihydro-1H-isoindol-5-yl]methyl}piperazin-1-yl)methyl]cyclohexyl]oxy}piperidin-1-yl)-5H,6H,7H-pyrrolo[3,4-b]pyridin-6-yl]piperidine-2,6-dione]	< 5	–	5 to 50	> 70	35 to 70	–
COc1c(N2CCC(CN3CCC4(CC3)CN(c3cc5c(c(C(F)(F)F)c3)CN(c3cccc(C6(Cc7nncn7C)COC6)c3)C5=O)C4)CC2)ccc2c1CN(C1CCC(=O)NC1=O)C2=O (centres unmarked) [Example 8, 3-{4-methoxy-5-[4-({2-[2-(3-{3-[(4-methyl-4H-1,2,4-triazol-3-yl)methyl]oxetan-3-yl}phenyl)-3-oxo-7-(trifluoromethyl)-2,3-dihydro-1H-isoindol-5-yl]-2,7-diazaspiro [3.5]nonan-7-yl}methyl)piperidin-1-yl]-1-oxo-2,3-dihydro-1H-isoindol-2-yl}piperidine-2,6-dione]	< 5	–	5 to 50	> 70	35 to 70	–
COc1c(N2CCC(CN3CCC4(CC3)CN(c3cc5c(c(C(F)(F)F)c3)CN(c3cccc([C@]6(Cc7nncn7C)C[C@@H](C#N)C6)c3)C5=O)C4)CC2)ccc2c1CN(C1CCC(=O)NC1=O)C2=O (some centres unmarked) [Example 174, (1r,3r)-3-(3-{6-[7-({1-[2-(2,6-dioxopiperidin-3-yl)-4-methoxy-1-oxo-2,3-dihydro-1H-isoindol-5-yl]piperidin-4-yl}methyl)-2,7-diazaspiro[3.5]nonan-2-yl]-1-oxo-4-(trifluoromethyl)-2,3-dihydro-1H-isoindol-2-yl}phenyl)-3-[(4-methyl-4H-1,2,4-triazol-3-yl)methyl]cyclobutane-1-carbonitrile]	< 5	–	5 to 50	> 70	> 70	–
CC1c2nc(N3CCC(O[C@H]4CC[C@H](CN5C[C@@H]6C[C@H]5CN6Cc5cc6c(c(C(F)(F)F)c5)CN(c5cccc([C@]7(Cc8nncn8C)C[C@H](C#N)C7)c5)C6=O)CC4)CC3)ccc2C(=O)N1C1CCC(=O)NC1=O (stereo partly drawn) [Example 214, (1r,3r)-3-[(4-methyl-4H-1,2,4-triazol-3-yl)methyl]-3-[3-(1-oxo-6-{[(1S,4S)-5-{[(1r,4r)-4-({1-[6-(2,6-dioxopiperidin-3-yl)-7-methyl-5-oxo-5H,6H,7H-pyrrolo[3,4-b]pyridin-2-yl]piperidin-4-yl}oxy)cyclohexyl]methyl}-2,5-diazabicyclo[2.2.1]heptan-2-yl]methyl}-4-(trifluoromethyl)-2,3-dihydro-1H-isoindol-2-yl)phenyl]cyclobutane-1-carbonitrile]	< 5	–	5 to 50	35 to 70	35 to 70	–
CC(c1cc2c(c(C(F)(F)F)c1)CN(c1cccc(C3(Cc4nncn4C)COC3)c1)C2=O)N1CCN(C[C@H]2CC[C@H](OC3CCN(c4ccc5c(c4F)CN(C4CCC(=O)NC4=O)C5=O)CC3)CC2)CC1 (single isomer, unassigned) [Example 9, 3-[4-fluoro-1-oxo-5-(4-{[(1r, 4r)-4-[(4-{1-[2-(3-{3-[(4-methyl-4H-1,2,4-triazol-3-yl)methyl]oxetan-3-yl}phenyl)-3-oxo-7-(trifluoromethyl)-2,3-dihydro-1H-isoindol-5-yl]ethyl}piperazin-1-yl)methyl]cyclohexyl]oxy}piperidin-1-yl)-2,3-dihydro-1H-isoindol-2-yl]piperidine-2,6-dione]	< 5	B (35 < B < 70)	< 5	–	–	B (35 < B < 70)

Further lines, results first:

DC50 (Cbl-b [1]) [nM]	Cbl-b Degredation Method B Dmax (%) (Cbl-b [1])	DC50 (Cbl-b [2]) [nM]	Dmax (Cbl-b [2]; maximum degradation observed) [%]	Dmax (Cbl-b [1]) [%]	Cbl-b Degredation Method A Dmax (%) (Cbl-b [2]; maximum degradation observed)	Compound
> 500	–	> 500	–	–	–	Cn1cnnc1CC1(c2cccc(N3Cc4c(cc(CN5CCC(CN6CCC7(CC6)CCN(c6ccc8c(c6)C(=O)N(C6CCC(=O)NC6=O)C8=O)CC7)CC5)cc4C(F)(F)F)C3=O)c2)COC1 (centres unmarked) [Example 29, 2-(2,6-dioxopiperidin-3-yl)-5-{9-[(1-{[2-(3-{3-[(4-methyl-4H-1,2,4-triazol-3-yl)methyl]oxetan-3-yl}phenyl)-3-oxo-7-(trifluoromethyl)-2,3-dihydro-1H-isoindol-5-yl]methyl}piperidin-4-yl)methyl]-3,9-diazaspiro[5.5]undecan-3-yl}-2,3-dihydro-1H-isoindole-1,3-dione]
> 500	–	50 to 500	–	–	–	Cn1cnnc1CC1(c2cccc(N3Cc4c(cc(N5CCC6(CC5)CN(CC5CCN(c7ccc8c(c7)C(=O)N(C7CCC(=O)NC7=O)C8=O)CC5)C6)cc4C(F)(F)F)C3=O)c2)COC1 (centres unmarked) [Example 135, 2-(2,6-dioxopiperidin-3-yl)-5-[4-({7-[2-(3-{3-[(4-methyl-4H-1,2,4-triazol-3-yl)methyl]oxetan-3-yl}phenyl)-3-oxo-7-(trifluoromethyl)-2,3-dihydro-1H-isoindol-5-yl]-2,7-diazaspiro[3.5]nonan-2-yl}methyl)piperidin-1-yl]-2,3-dihydro-1H-isoindole-1,3-dione]
5 to 50	–	5 to 50	< 35	< 35	–	Cn1cnnc1CC1(c2cccc(N3Cc4c(cc(N5CCC(CN6CC7(CCN(c8ccc9c(c8)C(=O)N(C8CCC(=O)NC8=O)C9=O)CC7)C6)CC5)cc4C(F)(F)F)C3=O)c2)COC1 (centres unmarked) [Example 11, 2-(2,6-dioxo-3-piperidyl)-5-[2-[[1-[2-[3-[3-[(4-methyl-1,2,4-triazol-3-yl)methyl]oxetan-3-yl]phenyl]-3-oxo-7-(trifluoromethyl)isoindolin-5-yl]-4-piperidyl]methyl]-2,7-diazaspiro[3.5]nonan-7-yl]isoindoline-1,3-dione]
> 500	–	50 to 500	< 35	–	–	Cn1cnnc1CC1(c2cccc(N3Cc4c(cc(N5CCC(CC6CN(c7ccc8c(c7)C(=O)N(C7CCC(=O)NC7=O)C8=O)C6)CC5)cc4C(F)(F)F)C3=O)c2)COC1 (centres unmarked) [Example 134, 2-(2,6-dioxopiperidin-3-yl)-5-[3-({1-[2-(3-{3-[(4-methyl-4H-1,2,4-triazol-3-yl)methyl]oxetan-3-yl}phenyl)-3-oxo-7-(trifluoromethyl)-2,3-dihydro-1H-isoindol-5-yl]piperidin-4-yl}methyl)azetidin-1-yl]-2,3-dihydro-1H-isoindole-1,3-dione]
